The text below walks through data of ChEMBL document CHEMBL1142434, “Novel prostaglandin D synthase inhibitors generated by fragment-based drug design” (J Med Chem, 2008).

For series [1], the target named is Hematopoietic prostaglandin D synthase (Homo sapiens, UniProt O60760). The experiment in a line: Inhibition of glutathione-S-transferase activity of prostaglandin D2 synthase.
The test system of another series is LAD2. Description: Inhibition of PMA/ionomycin-induced PDG2 synthesis in human LAD2 cells. The format is functional, cell-based.
Series [2] is described as follows: Toxicity against PMA/ionomycin treated human LAD2 cells assessed as cellular viability. The format is cell-based.

Chain of Hematopoietic prostaglandin D synthase (O60760 whole entry): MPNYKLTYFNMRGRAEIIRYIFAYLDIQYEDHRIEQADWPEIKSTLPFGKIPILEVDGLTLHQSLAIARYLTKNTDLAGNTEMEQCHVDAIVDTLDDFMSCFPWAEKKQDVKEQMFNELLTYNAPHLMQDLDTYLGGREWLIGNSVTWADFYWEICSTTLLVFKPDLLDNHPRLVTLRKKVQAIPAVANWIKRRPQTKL

Consider `O=C1c2ccccc2-c2nnc(-c3ccc(O)cc3)cc21`, for which the half-maximal inhibitory concentration (IC50) (as a rule, the concentration that inhibits the measured activity by half) in series [1] turned out to be 3.8 µM.

For `Cc1ccc(NC(=O)c2cc(-c3ccccc3)ns2)cc1NC(=O)c1cccc(CN2CCN(C)CC2)c1`, in series [1], the half-inhibitory concentration (IC50) is 0.075 µM.

`Cc1ccc(-c2cc[nH]n2)cn1` displayed an IC50 in series [1] of 34.7 µM.

The molecule `CCOC(=O)c1cc(O)c(-c2ccccc2)nn1` had a 50% inhibitory concentration (IC50) in series [1] of 45 µM.

`COc1ccc(C(=O)CBr)c2ccccc12` gave a half-inhibitory concentration (IC50) in series [1] of 12.4 µM.

In series [1], `Oc1c(Cl)cc(Cl)cc1-c1cc[nH]n1` registered an IC50 of 17.4 µM.

As for `Cc1ccc(-c2cc3c(nn2)-c2ccccc2C3=O)cc1`, the IC50 in series [1] is 3.8 µM.

In the case of `c1ccc(-c2ncc(-c3cc[nH]n3)s2)cc1`, in the series on LAD2, the concentration giving a half-maximal response (EC50) (commonly the concentration at which the effect is half-maximal) is 1.7 µM. In addition, the Activity result in series [2] is reported as “Non-toxic”.

With `COc1ccccc1-c1csc(Nc2ccc(C(=O)O)cc2)n1`, the 50% inhibitory concentration (IC50) in series [1] was found to be 0.994 µM.

Molecule `COc1ccc(-c2cnn(-c3ccccc3)c2N)cc1OC` registered an IC50 in series [1] of 33 µM.

For `Cc1cc(C)c(-c2cc[nH]n2)[nH]1`, half-maximal inhibition in series [1] (IC50) was put at 26.4 µM.

In the case of `COC(=O)c1ccc(-c2nnc(-c3ccncc3)[nH]2)nc1`, the IC50 in series [1] was 1.5 µM.
